Test results reported in patent US6376484B1, “Tetrazole compounds and pharmaceutical agents containing such derivative as an active ingredient” (Ono Pharmaceutical Co., Ltd., priority 1995, dated 2002).

Molecular target: T1, human ICE (IL-1β converting enzyme) (Homo sapiens, UniProt P29466)
T1 sequence (P29466 120-297 limits assumed): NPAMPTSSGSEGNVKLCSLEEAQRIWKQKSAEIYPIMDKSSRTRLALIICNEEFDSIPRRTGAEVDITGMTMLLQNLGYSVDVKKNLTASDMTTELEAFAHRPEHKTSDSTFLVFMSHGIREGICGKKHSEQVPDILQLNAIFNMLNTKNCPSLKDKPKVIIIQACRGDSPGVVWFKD
T1 sequence (P29466 317-404 limits assumed): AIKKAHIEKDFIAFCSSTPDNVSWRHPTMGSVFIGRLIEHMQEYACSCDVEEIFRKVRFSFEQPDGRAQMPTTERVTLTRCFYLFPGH
Assay: Assay for IL-1β converting enzyme (ICE) inhibition, fluorogenic substrate Ac-Tyr-Val-Ala-Asp-MCA
Assay type: biochemical
Conditions: human ICE solution, 37° C., fluorescence, read-out: IC50, ICE inhibitory activity
Description: (1) Assay for IL-1β converting enzyme
The reaction mixture contains, for example, 20 mM of HEPES-NaOH pH7.4, 10 mM of KOH, 1.5 mM of MgCl2, 0.1 mM of EDTA and 10% glycerol. Various concentrations of test compounds (50 μl), human ICE solution (50 μl) and various concentrations of substrate (Ac-Tyr-Val-Ala-Asp-MCA) were mixed and incubated at 37° C. Fluorescence intensity was measured at […].
In the aboved example method,
HEPES is 4-(2-Hydroxyethyl)-1-piperazineethane-sulfonic acid,
EDTA is Ethylenediamine tetraacetate, and
Ac-Tyr-Val-Ala-Asp-MCA is Acetyl-L-tyrosyl-L-valyl-L-alanyl-L-asparaginic acid 4-methyl-coumarinyl-7-amide.

Structure (SMILES): CC(C)[C@H](NC(=O)CCc1ccccc1)C(=O)N[C@@H](C)C(=O)NC(CC(=O)O)C(=O)Cn1nnnc1Cc1c(Cl)cccc1Cl (stereo partly drawn) [Example 2(1), N-((N-(3-phenylpropionyl)-L-valyl)-L-alanyl)-3-amino-4-oxo-5-(5-(2,6-dichlorophenylmethyl)tetrazol-1-yl)pentanoic acid]
- IC50: 0.03 µM
